According to patent publication US20250144094A1 (Erasca, Inc., priority 2021, published 2025):

Molecular target: Recombinant human ULK1 (1-649) (Homo sapiens (Human), UniProt O75385)
Test: ULK1 ADP Glo kinase activity assay, new method (ULKtide peptide substrate)
Conditions: 25° C., 40 minutes, read-out: ULK1 biochemical IC50
Method in brief: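 GST-tagged human ULK1 (1-649) from Sf9 cells was reacted with ULKtide peptide and ATP for 40 min at 25 °C across 12-point compound dilutions from 10 μM. ADP formed was quantified by ADP-Glo luminescence; IC50 came from four-parameter fits relative to DMSO controls.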

Recombinant human ULK1 (1-649), sequence (O75385 1-649): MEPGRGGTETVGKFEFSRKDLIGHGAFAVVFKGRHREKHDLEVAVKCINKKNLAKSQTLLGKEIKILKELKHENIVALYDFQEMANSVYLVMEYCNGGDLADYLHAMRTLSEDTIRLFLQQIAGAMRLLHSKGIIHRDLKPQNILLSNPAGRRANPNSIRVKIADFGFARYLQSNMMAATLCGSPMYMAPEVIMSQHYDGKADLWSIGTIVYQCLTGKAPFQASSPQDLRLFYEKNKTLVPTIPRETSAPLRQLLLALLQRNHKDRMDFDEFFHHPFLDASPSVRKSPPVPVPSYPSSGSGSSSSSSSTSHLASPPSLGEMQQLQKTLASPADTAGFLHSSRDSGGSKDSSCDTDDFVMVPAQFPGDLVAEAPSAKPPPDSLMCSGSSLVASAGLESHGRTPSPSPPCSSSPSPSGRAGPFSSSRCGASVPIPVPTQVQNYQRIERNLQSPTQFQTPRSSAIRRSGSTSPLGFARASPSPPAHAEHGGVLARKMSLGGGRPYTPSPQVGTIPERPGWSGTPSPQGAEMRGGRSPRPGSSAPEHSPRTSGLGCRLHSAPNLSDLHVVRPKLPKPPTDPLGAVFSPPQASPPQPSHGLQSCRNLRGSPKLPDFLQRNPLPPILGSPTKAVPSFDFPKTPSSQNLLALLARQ

Question: `CCc1cc(N2CCN(CC)CC2)ccc1Nc1ncc(C(F)(F)F)c(-c2cc3c(s2)C(=O)N(C2CC2)CCS3(=O)=O)n1` [Example 271, 4-cyclopropyl-7-(2-((2-ethyl-4-(4-ethylpiperazin-1-yl)phenyl)amino)-5-(trifluoromethyl)pyrimidin-4-yl)-3,4-dihydrothieno[2,3-f][1,4]thiazepin-5(2H)-one 1,1-dioxide] was tested. Which IC50 did it give?
Answer: ≤ 5 nM

Question: How did the IC50 turn out when `CCc1cc(N2CCN(C(C)C)CC2)ccc1Nc1ncc(C(F)(F)F)c(-c2cc3c(s2)C(=O)N(C2CC2)CCS3(=O)=O)n1` [Example 272, 4-cyclopropyl-7-(2-((2-ethyl-4-(4-isopropylpiperazin-1-yl)phenyl)amino)-5-(trifluoromethyl)pyrimidin-4-yl)-3,4-dihydrothieno[2,3-f][1,4]thiazepin-5(2H)-one 1,1-dioxide] was run?
Answer: ≤ 5 nM

Question: Which IC50 does the source give for `O=C1c2sc(-c3nc(Nc4cc5c(cc4OC(F)(F)F)CNCC5)ncc3C(F)(F)F)cc2S(=O)(=O)CCN1C1CC1` [Example 273, 4-cyclopropyl-7-(2-((7-(trifluoromethoxy)-1,2,3,4-tetrahydroisoquinolin-6-yl)amino)-5-(trifluoromethyl)pyrimidin-4-yl)-3,4-dihydrothieno[2,3-f][1,4]thiazepin-5(2H)-one 1,1-dioxide] here?
Answer: ≤ 5 nM

Question: For `CCc1cc2c(cc1Nc1ncc(C(F)(F)F)c(-c3cc4c(s3)C(=O)N(C3COC3)CCS4(=O)=O)n1)CCN(CC1CC1)C2` [Example 274, 7-(2-((2-(cyclopropylmethyl)-7-ethyl-1,2,3,4-tetrahydroisoquinolin-6-yl)amino)-5-(trifluoromethyl)pyrimidin-4-yl)-4-(oxetan-3-yl)-3,4-dihydrothieno[2,3-f][1,4]thiazepin-5(2H)-one 1,1-dioxide], which IC50 is on record?
Answer: ≤ 5 nM

Question: With `CCc1cc2c(cc1Nc1ncc(C(F)(F)F)c(-c3cc4c(s3)C(=O)N(C3COC3)CCS4(=O)=O)n1)CCN(CC1COC1)C2` [Example 275, 7-(2-((7-ethyl-2-(oxetan-3-ylmethyl)-1,2,3,4-tetrahydroisoquinolin-6-yl)amino)-5-(trifluoromethyl)pyrimidin-4-yl)-4-(oxetan-3-yl)-3,4-dihydrothieno[2,3-f][1,4]thiazepin-5(2H)-one 1,1-dioxide] as the compound, how does the IC50 read?
Answer: ≤ 5 nM

Question: Which IC50 does the source give for `N#CCN1CCc2cc(Nc3ncc(C(F)(F)F)c(-c4cc5c(s4)C(=O)N(C4CC4)CCS5(=O)=O)n3)c(C3CC3)cc2C1` [Example 276, 2-(7-cyclopropyl-6-((4-(4-cyclopropyl-1,1-dioxido-5-oxo-2,3,4,5-tetrahydrothieno[2,3-f][1,4]thiazepin-7-yl)-5-(trifluoromethyl)pyrimidin-2-yl)amino)-3,4-dihydroisoquinolin-2(1H)-yl)acetonitrile] here?
Answer: 10 to 50 nM

Question: `CCc1cc2c(cc1Nc1ncc(C(F)(F)F)c(-c3cc4c(s3)C(=O)N(C3CC3)CCS4(=O)=O)n1)CCN(CC1COC1)C2` [Example 277, 4-cyclopropyl-7-(2-((7-ethyl-2-(oxetan-3-ylmethyl)-1,2,3,4-tetrahydroisoquinolin-6-yl)amino)-5-(trifluoromethyl)pyrimidin-4-yl)-3,4-dihydrothieno[2,3-f][1,4]thiazepin-5(2H)-one 1,1-dioxide] was tested. Which IC50 did it give?
Answer: ≤ 5 nM

Question: With `CC1(CN2CCc3cc(Nc4ncc(C(F)(F)F)c(-c5cc6c(s5)C(=O)N(C5CC5)CCS6(=O)=O)n4)c(C4CC4)cc3C2)COC1` [Example 279, 4-cyclopropyl-7-(2-((7-cyclopropyl-2-((3-methyloxetan-3-yl)methyl)-1,2,3,4-tetrahydroisoquinolin-6-yl)amino)-5-(trifluoromethyl)pyrimidin-4-yl)-3,4-dihydrothieno[2,3-f][1,4]thiazepin-5(2H)-one 1,1-dioxide] as the compound, how does the IC50 read?
Answer: ≤ 5 nM

Question: `CCc1cc(N2CCN(CC(N)=O)CC2)ccc1Nc1ncc(C(F)(F)F)c(-c2cc3c(s2)C(=O)N(C2CC2)CCS3(=O)=O)n1` [Example 280, 2-(4-(4-((4-(4-cyclopropyl-1,1-dioxido-5-oxo-2,3,4,5-tetrahydrothieno[2,3-f][1,4]thiazepin-7-yl)-5-(trifluoromethyl)pyrimidin-2-yl)amino)-3-ethylphenyl)piperazin-1-yl)acetamide] was tested. Which IC50 did it give?
Answer: ≤ 5 nM
